Tested on: Hs578T complex spheroid growth, percent test/control
Experiment: Anticancer human tumor Hs578T cell line growth inhibition [AhR];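 also: luminescent viability signal as a proxy for spheroid growth; spheroids exposed to agents for one week after three days of growth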
Conditions: for IC50: curve of first compound; for viability, T/C: stronger effect = lower value
How it was run: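 Complex tumor spheroids co-cultured with HUVEC and human MSC stroma; AhR antagonists tested in combination with standard-of-care and investigational agents. Top concentration at or near clinical Cmax (else 10 microM), half-log dilutions; growth expressed as percent test/control.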

## CC(C)c1c(-c2ccccc2)nc2c(C#N)c[nH]n2c1=O + Cc1cncc(-c2nc(NCCc3c[nH]c4ccccc34)c3ncn(C(C)C)c3n2)c1
Second compound 0.1 µM
  IC50: > 10 µM
Second compound 0.316 µM
  IC50: > 10 µM
Second compound 1 µM
  IC50: > 10 µM
Second compound 3.16 µM
  IC50: > 10 µM
Second compound 10 µM
  IC50: < 0.0316 µM
Second compound 0.1 µM, first compound 0.0316 µM
  viability, T/C: 114%
Second compound 0.1 µM, first compound 0.1 µM
  viability, T/C: 113%
Second compound 0.1 µM, first compound 0.316 µM
  viability, T/C: 110%
Second compound 0.1 µM, first compound 1 µM
  viability, T/C: 108%
Second compound 0.1 µM, first compound 3.16 µM
  viability, T/C: 109%
Second compound 0.1 µM, first compound 10 µM
  viability, T/C: 96.4%
Second compound 0.316 µM, first compound 0.0316 µM
  viability, T/C: 112%
Second compound 0.316 µM, first compound 0.1 µM
  viability, T/C: 104%
Second compound 0.316 µM, first compound 0.316 µM
  viability, T/C: 113%
Second compound 0.316 µM, first compound 1 µM
  viability, T/C: 103%
Second compound 0.316 µM, first compound 3.16 µM
  viability, T/C: 109%
Second compound 0.316 µM, first compound 10 µM
  viability, T/C: 107%
Second compound 1 µM, first compound 0.0316 µM
  viability, T/C: 99.6%
Second compound 1 µM, first compound 0.1 µM
  viability, T/C: 101%
Second compound 1 µM, first compound 0.316 µM
  viability, T/C: 107%
Second compound 1 µM, first compound 1 µM
  viability, T/C: 100%
Second compound 1 µM, first compound 3.16 µM
  viability, T/C: 102%
Second compound 1 µM, first compound 10 µM
  viability, T/C: 99.5%
Second compound 3.16 µM, first compound 0.0316 µM
  viability, T/C: 61.3%
Second compound 3.16 µM, first compound 0.1 µM
  viability, T/C: 65.5%
Second compound 3.16 µM, first compound 0.316 µM
  viability, T/C: 68.6%
Second compound 3.16 µM, first compound 1 µM
  viability, T/C: 62.9%
Second compound 3.16 µM, first compound 3.16 µM
  viability, T/C: 55.8%
Second compound 3.16 µM, first compound 10 µM
  viability, T/C: 66.9%
Second compound 10 µM, first compound 0.0316 µM
  viability, T/C: 4.95%
Second compound 10 µM, first compound 0.1 µM
  viability, T/C: 6.12%
Second compound 10 µM, first compound 0.316 µM
  viability, T/C: 4.81%
Second compound 10 µM, first compound 1 µM
  viability, T/C: 4.87%
Second compound 10 µM, first compound 3.16 µM
  viability, T/C: 5.51%
Second compound 10 µM, first compound 10 µM
  viability, T/C: 7.39%

Reference: PubChem BioAssay AID1919010 (Molecular Pharmacology Branch, DTP, NCI, 2023)
